In article PMC11278660, “Molecular, Genetic, and Biochemical Characterization of OXA-484 Carbapenemase, a Difficult-to-Detect R214G Variant of OXA-181” (Microorganisms, 2024):

tested on: T1, OXA-484; assay: UV spectrophotometry, initial rates, Eadie-Hofstee plot; assay type: biochemical, Escherichia coli; conditions: 30 °C, 100 mM sodium phosphate, pH 7.0; read-out: Km (μM) / OXA-181
T1 construct: gene blaOXA-484; mature beta-lactamase AA20-265 in pET41b(+), expressed in E. coli BL21(DE3), purified; gene 798 bp; natural variant equal to OXA-181 with R214G
Description: UV spectrophotometry, initial rates, Eadie-Hofstee plot on OXA-484

SMILES | Km [µM]
CO/N=C(\C(=O)N[C@@H]1C(=O)N2C(C(=O)O)=C(COC(C)=O)CS[C@H]12)c1csc(N)n1 [Cefotaxime] | > 1000

same assay, conditions: 30 °C, 100 mM sodium phosphate, pH 7.0; read-out: Km (μM) / OXA-484

SMILES | Km [µM]
C[C@@H](O)[C@H]1C(=O)N2C(C(=O)O)=C(S[C@@H]3CN[C@H](C(=O)N(C)C)C3)[C@H](C)[C@H]12 [Meropenem] | 263 ± 9.4
CO[C@@]1(NC(=O)C(C(=O)O)c2ccsc2)C(=O)N2[C@@H](C(=O)O)C(C)(C)S[C@@H]21 (stereo partly shown) [Temocillin] | 178 ± 25.1
CC(=O)OCC1=C(C(=O)O)N2C(=O)[C@@H](NC(=O)Cc3cccs3)[C@H]2SC1 [Cefalotin] | 37 ± 2.6
C[C@@H](O)[C@H]1C(=O)N2C(C(=O)O)=C(SCCN=CN)C[C@H]12 [Imipenem] | 6 ± 2.1
CC1(C)S[C@@H]2[C@H](NC(=O)Cc3ccccc3)C(=O)N2[C@H]1C(=O)O [Benzylpenicillin] | 33 ± 1.9
C[C@@H](O)[C@H]1C(=O)N2C(C(=O)O)=C(S[C@@H]3CN[C@H](C(=O)Nc4cccc(C(=O)O)c4)C3)[C@H](C)[C@H]12 [Ertapenem] | 27 ± 1.2
CC1(C)S[C@@H]2[C@H](NC(=O)[C@H](N)c3ccccc3)C(=O)N2[C@H]1C(=O)O [Ampicillin] | 653 ± 72.2

tested on: T1, OXA-484; assay: inhibition of beta-lactam hydrolysis; assay type: biochemical, Escherichia coli; conditions: reporter substrate not stated

SMILES | IC50 [µM]
O=C(O)[C@H]1/C(=C/CO)O[C@@H]2CC(=O)N21 [clavulanic acid] | 19
C[C@]1(Cn2ccnn2)[C@H](C(=O)O)N2C(=O)C[C@H]2S1(=O)=O [tazobactam] | 1.09
